Here are results for 23 compounds from patent US6576627B1, “Phosphonic acid derivatives having carboxypeptidase b inhibitory activity” (Meiji Seika Kaisha Ltd., priority 1999, dated 2003).

The first series deals with T1, carboxypeptidase B (Homo sapiens, UniProt Q96IY4).
T1 construct: from tissue; host or cells: human plasma (citrated)
T1 sequence (Q96IY4 115-423): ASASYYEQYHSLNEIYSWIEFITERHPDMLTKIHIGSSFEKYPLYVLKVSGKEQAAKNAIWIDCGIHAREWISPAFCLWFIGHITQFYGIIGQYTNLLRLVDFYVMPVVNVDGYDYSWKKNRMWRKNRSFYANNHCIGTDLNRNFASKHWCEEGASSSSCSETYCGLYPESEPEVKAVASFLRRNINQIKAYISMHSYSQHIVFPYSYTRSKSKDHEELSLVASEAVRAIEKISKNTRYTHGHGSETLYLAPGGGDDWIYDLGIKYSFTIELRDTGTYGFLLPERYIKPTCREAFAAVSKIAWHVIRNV
As to the kind of experiment: Inhibitory activity against carboxypeptidase B (activated pro-CPB partially purified from human plasma, Hip-Arg substrate). Format: biochemical. To be noted: tested substance 500 nM, 25° C. for 60 minutes, absorbance at 405 nm. On the procedure: Inhibitory activity of the compounds of the present invention against carboxypeptidase B was measured as follows according to the method described in Thromb. Haemost. 371(1998).
(a) Partial Purification of Carboxypeptidase B Precursor (pro-CPB) from Human Plasma
Human plasma collected over citric acid was added with 80 mM barium chloride and treated at 4° C. for 30 minutes. The supernatant obtained by centrifugation at 10,000 rpm for 20 minutes was dialyzed against 20 mM HEPES buffer containing 0.15 M sodium chloride (pH 7.4). Furthermore, protein in the fractions obtained with 30% to 80% ammonium sulfate were partially purified by chromatography using a Q-Sepharose column (elution with 50 mM tris-HCl buffer (pH 7.4) gradually containing sodium chloride to 0.5 M).
(b) Activation of pro-CPB
pro-CPB (20 μl) was added with 20 μl of a thrombomodulin solution (Thrombomodulin derived from rabbit lung, American Diagnostia Inc., Product No. #237, dissolved at concentration of 300 ng/ml in buffer A as 50 mM tris-HCl buffer (pH 7.4) supplemented with 0.1% Lubrol, 0.1% BSA and 0.15 M sodium chloride), and treated at 25° C. for 3 minutes. Then, the mixture was added with 20 μl of thrombin (Thrombin derived from human plasma, Sigma, Product No. T8885, dissolved at concentration of 3 u/ml in buffer B as 50 mM Tris-HCl buffer (pH 7.4) supplemented with 0.1% BSA, 0.15 M NaCl and 10 mM calcium chloride) and further treated at 25° C. for 30 minutes for activation(*1).
(c) Measurement of CPB Inhibitory Activity
By using a microplate, 4 μl of the sample was added with a mixed solution of 41 μl of buffer C (0.1 M tris-HCl buffer (pH 7.6)) and 25 μl of a substrate solution (Hip-Arg, Sigma, H2508, dissolved in buffer C at concentration of 4 mM.), and further added with 10 μl of the activated CPB solution (*1), and then the mixture was well mixed and allowed to react at 25° C. for 60 minutes. Then, 100 μl of 0.2 M PIPES buffer (pH 7.5) containing 12.5% Tween was added to the mixture to stop the reaction. After 5 minutes, the mixture was added with 100 μl of a coloring solution (2-methoxyethanol containing 1% cyanuryl chloride) and allowed to stand at room temperature for 15 minutes, and then absorbance was measured at 405 nm by using a microplate reader (Bio Rad Model 3550).
Inhibitory activity against carboxypeptidase B was calculated by using the following equation as an inhibitory rate, wherein A represents absorbance in the absence of a tested substance; B represents absorbance in the presence of a tested substance (500 nM); A′ and B′ represent the aforementioned absorbances obtained by using non-activated enzyme without and with the tested substance, respectively.
Inhibitory rate (%)=[1−{(B-B′)/(A-A′)}]×100
The results of the carboxypeptidase B inhibitory rates are shown in Table 1, which were calculated by using the above equation and the results of the measurements in the above experiments for the compounds of the present invention.
Turning to `CC(C)C(NC(=O)CCc1ccccc1)P(=O)(O)OC(CCCCN)C(=O)O` [Example 2, (S)-6-Amino-2-((2-methyl-1-(3-phenylpropanoylamino)propyl)(hydroxyphosphinoyl)oxy)hexanoic acid], the “Carboxypeptidase B inhibitory rates by tested substance at 500 nM” value is given as >90%.

The same series, now with this note: tested substance 500 nM, 25° C. for 60 minutes, absorbance at 405 nm, read-out: Carboxypeptidase B inhibitory rates by tested substance at 500 nM.
Take `C[C@H](NC(=O)OCc1ccccc1)P(=O)(O)O[C@@H](CCCCN)C(=O)O` [Example 1, (S)-6-Amino-2-(((R)-1-(benzyloxycarbonylamino)ethyl)(hydroxyphosphinoyl)oxy)hexanoic acid]: the inhibition at 0.5 µM worked out at 30%.

As for `CCC(CC)C(NC(=O)CCc1ccccc1)P(=O)(O)OC(CCCCN)C(=O)O` [Example 3, (S)-6-Amino-2-((2-ethyl-1-(3-phenylpropanoylamino)butyl)(hydroxyphosphinoyl)oxy)hexanoic acid], the inhibition at 0.5 µM was > 90%.

With `CC(NC(=O)CCc1ccccc1)P(=O)(O)OC(CCCCN)C(=O)O` [Example 4, (S)-6-Amino-2-((1-(3-phenylpropanoylamino)ethyl)(hydroxyphosphinoyl)oxy)hexanoic acid], the inhibition at 0.5 µM is > 90%.

Consider `NCCCC[C@H](OP(=O)(O)CNC(=O)CCc1ccccc1)C(=O)O` [Example 5, (S)-6-Amino-2-(((3-phenylpropanoylamino)methyl)(hydroxyphosphinoyl)oxy)hexanoic acid], for which the inhibition at 0.5 µM came out at 30%.

Take `NCCCCC(OP(=O)(O)C(NC(=O)CCc1ccccc1)C1CC1)C(=O)O` [Example 6, (S)-6-Amino-2-((1-cyclopropyl(3-phenylpropanoylamino)methyl)(hydroxyphosphinoyl)oxy)hexanoic acid]: the inhibition at 0.5 µM was > 90%.

Consider `CCCC(NC(=O)CCc1ccccc1)P(=O)(O)OC(CCCCN)C(=O)O` [Example 8, (S)-6-Amino-2-((1-(3-phenylpropanoylamino)butyl)(hydroxyphosphinoyl)oxy)hexanoic acid], for which the inhibition at 0.5 µM was > 90%.

`NCCCCC(OP(=O)(O)C(NC(=O)CCc1ccccc1)C1CCCCC1)C(=O)O` [Example 9, (S)-6-Amino-2-((1-cyclohexyl-1-(3-phenylpropanoylamino)methyl)(hydroxyphosphinoyl)oxy)hexanoic acid]: the inhibition at 0.5 µM is > 90%.

`NCCCC[C@H](OP(=O)(O)C(NC(=O)CCc1ccccc1)C1CCC1)C(=O)O` (stereo partly drawn) [Example 10, (S)-6-Amino-2-((1-cyclobutyl-1-(3-phenylpropanoylamino)methyl)(hydroxyphosphinoyl)oxy)hexanoic acid]: the inhibition at 0.5 µM is > 90%.

Take `CC(C)CC(NC(=O)CCc1ccccc1)P(=O)(O)OC(CCCCN)C(=O)O` [Example 12, (S)-6-Amino-2-((3-methyl-1-(3-phenylpropanoylamino)butyl)(hydroxyphosphinoyl)oxy)hexanoic acid]: the inhibition at 0.5 µM is > 90%.

Consider `NCCCC[C@H](OP(=O)(O)C1(NC(=O)CCc2ccccc2)CCCCC1)C(=O)O` [Example 14, (S)-6-Amino-2-((1-(3-phenylpropanoylamino)cyclohexyl)(hydroxyphosphinoyl)oxy)hexanoic acid], for which the inhibition at 0.5 µM was > 90%.

Consider `CCC(NC(=O)CCc1ccccc1)P(=O)(O)OC(CCCCN)C(=O)O` [Example 16, (S)-6-Amino-2-((1-(3-phenylpropanoylamino)propyl)(hydroxyphosphinoyl)oxy)hexanoic acid], for which the inhibition at 0.5 µM was > 90%.

For the compound `CC(C)C(NC(=O)CCc1ccccc1)P(=O)(O)OC(CCCCN)C(=O)O` [Example 19, (S)-6-Amino-2-((2-methyl-(1R)-(3-phenylpropanoylamino)propyl)(hydroxyphosphinoyl)oxy)hexanoic acid], the inhibition at 0.5 µM was > 90%.

`NCCCC[C@H](OP(=O)(O)C1(NC(=O)CCc2ccccc2)CCCC1)C(=O)O` [Example 20, (S)-6-Amino-2-((1-(3-phenylpropanoylamino)cyclopentyl)(hydroxyphosphinoyl)oxy)hexanoic acid]: the inhibition at 0.5 µM was > 90%.

On to `CC(C)(C)CC(NC(=O)CCc1ccccc1)P(=O)(O)OC(CCCCN)C(=O)O` [Example 23, (S)-6-Amino-2-((3,3-dimethyl-1-(3-phenylpropanoylamino)butyl)(hydroxyphosphinoyl)oxy)hexanoic acid], for which the inhibition at 0.5 µM was determined as 50%.

For `CC(C)C(NC(=O)CCCc1ccccc1)P(=O)(O)OC(CCCCN)C(=O)O` [Example 24, (S)-6-Amino-2-(2-methyl-1-(4-phenylbutanoylamino)propyl(hydroxyphosphinoyl)oxy)hexanoic acid], the inhibition at 0.5 µM is > 90%.

For the compound `NCCCCC(OP(=O)(O)C(CCC(F)(F)F)NC(=O)CCc1ccccc1)C(=O)O` [Example 25, (S)-6-Amino-2-((4,4,4-trifluoro-1-(3-phenylpropanoylamino)butyl)(hydroxyphosphinoyl)oxy)hexanoic acid], the inhibition at 0.5 µM came out at 80%.

Regarding `NCCCCC(OP(=O)(O)C(NC(=O)CCc1ccccc1)c1ccccc1)C(=O)O` [Example 34, (S)-6-Amino-2-((1-phenyl-1-(3-phenylpropanoylamino)methyl)(hydroxyphosphinoyl)oxy)hexanoic acid], the inhibition at 0.5 µM is 40%.

In the case of `NCCCCC(OP(=O)(O)C(NC(=O)CCc1ccccc1)C1CCOCC1)C(=O)O` [Example 35, (S)-6-Amino-2-((1-(3-phenylpropanoylamino)-1-(tetrahydropyran-4-yl)methyl)(hydroxyphosphinoyl)oxy)bexanoic acid], the inhibition at 0.5 µM is > 90%.

As for `NCCCCC(OP(=O)(O)C(CO)NC(=O)CCc1ccccc1)C(=O)O` [Example 37, (S)-6-Amino-2-((2-hydroxy-1-(3-phenylpropanoylamino)ethyl)(hydroxyphosphinoyl)oxy)hexanoic acid], the inhibition at 0.5 µM came to 70%.

As for `NCCCCC(OP(=O)(O)C(NC(=O)CCc1ccccc1)C1CCNCC1)C(=O)O` [Example 39, (S)-6-Amino-2-((1-(piperidin-4-yl)-1-(3-phenylpropanoylamino)methyl)(hydroxyphosphinoyl)oxy)hexanoic acid], the inhibition at 0.5 µM is > 90%.

For the compound `NCCCCC(OP(=O)(O)C(CCCN)NC(=O)CCc1ccccc1)C(=O)O` [Example 40, (S)-6-Amino-2-((4-amino-1-(3-phenylpropanoylamino)butyl)(hydroxyphosphinoyl)oxy)hexanoic acid], the inhibition at 0.5 µM was determined as 30%.

With `CC1CCC(C(NC(=O)CCc2ccccc2)P(=O)(O)OC(CCCCN)C(=O)O)CC1` [Example 41, (S)-6-Amino-2-((1-(4-methylcyclohexyl)-1-(3-phenylpropanoylamino)methyl)(hydroxyphosphinoyl)oxy)hexanoic acid], the inhibition at 0.5 µM was > 90%.

A further series relates to ICR male mice. The series is described as follows: Toxicity test by single administration. The class given is in vivo. Particulars: single intravenous administration in saline, dose of 1 g/kg, ICR male mice of 5 weeks old. Here is the method: Toxicity Test Example by Single Administration
The compound of Example 19 of the present invention was dissolved in saline intravenously administered to 6 individuals of ICR male mice of 5 weeks old.
As to `CC(C)C(NC(=O)CCc1ccccc1)P(=O)(O)OC(CCCCN)C(=O)O` [Example 19, (S)-6-Amino-2-((2-methyl-(1R)-(3-phenylpropanoylamino)propyl)(hydroxyphosphinoyl)oxy)hexanoic acid], the “death of the mice or severe toxicity” value is reported as “no death of the mice or severe toxicity was observed”.
